The text below walks through data of patent publication US7015211B2 (Yale University, priority 2003, dated 2006).

The test system of data set [1] is human endometrial adenocarcinoma cells (Ishikawa). Briefly: Estrogenic potency in Ishikawa cells, induction of alkaline phosphatase (AlkP). Format: cell-based. The conditions noted are these: for Ishikawa cell AlkP (RSA): relative stimulatory activity = EC50 of E2 / EC50 of analog x 100, E2 = 100, 3 days, ± SD. Here is the method: Estrogenic Potency in Ishikawa Cells. The estrogenic potency of the E2-analogs was determined in an estrogen bioassay, the induction of alkaline phosphatase (AlkP) in human endometrial adenocarcinoma cells (Ishikawa) grown in 96-well microtiter plates as we have previously described.^38 In short, the cells are grown in phenol red free medium with estrogen depleted (charcoal stripped) bovine serum in the presence or absence of varying amounts of the steroids, across a dose range of at least 6 orders of magnitude. […] After 3 days, the cells are washed, frozen and thawed, and then incubated with 5 mM p-nitrophenyl phosphate, a chromogenic substrate for the AlkP enzyme, at pH 9.8. To ensure linear enzymatic analysis, the plates are monitored kinetically for the production of p-nitrophenol at 405 nm. […] Each compound was analyzed in at least 3 separate experiments performed in duplicate.

Data set [2] relates to esterase, rat hepatic microsomes. Briefly: Esterase hydrolysis in rat hepatic microsomes. Format: in vitro ADME. The protocol:
Esterase. Esterase activity was measured in rat hepatic microsomes essentially using the conditions described^41 with some minor modifications. Briefly, rat hepatic microsomes were incubated with 50 μM E2-alkyl ester. Since the rates of reaction are widely different for the various esters, the incubation times and enzyme concentration were varied accordingly to obtain linear kinetics. In every experiment, E16-1,2 was run concurrently to normalize the rate of hydrolysis of each compound. At several appropriate time points during the incubation (37° C.), 100 μL aliquots were quenched with a solution of 2 μg of the internal standard, 6-ketoestradiol in 33 μL of CH3CN, 33 μL of THF and 5 μL of glacial HOAc. The mixture was centrifuged and analyzed for the esterase-hydrolysis product (the corresponding E2-carboxylic acid) by reversed phase HPLC: E16-1,0; E15-1,0; E15-2,0; and E15-3,0 by HPLC with system H-29. Peaks for the hydrolysis product (E16-1,0 tR=10.7 min; E15-1,0 tR=6.9 min; E15-2,0 tR=9.9 min; E15-3,0 tR=14 min;) and the internal standard (tR=11.8 min for system H-29 and tR=8.8 min for system H-30 were quantified at 280 nm on the HPLC UV detector. The UV absorbance was converted to nmoles of product by comparison to standard curves and corrected for recovery of the internal standard, 6-ketoestradiol. The velocity of the reaction for each ester, in nmol product/min/mg protein, was then normalized to the ester, E16-1,2 and is shown in Table 1 as relative hydrolytic activity (RHA) The enzymatic velocity for the hydrolysis of E16-1,2 was 2.34±0.8 (S.D.) nmol product/min/mg protein over the various experiments. All compounds were tested in triplicate in at least 2 separate experiments

The target of data set [3] is T1, ER (ERα) in uterine cytosol (Rattus norvegicus, UniProt P06211).
T1 sequence (P06211 1-600): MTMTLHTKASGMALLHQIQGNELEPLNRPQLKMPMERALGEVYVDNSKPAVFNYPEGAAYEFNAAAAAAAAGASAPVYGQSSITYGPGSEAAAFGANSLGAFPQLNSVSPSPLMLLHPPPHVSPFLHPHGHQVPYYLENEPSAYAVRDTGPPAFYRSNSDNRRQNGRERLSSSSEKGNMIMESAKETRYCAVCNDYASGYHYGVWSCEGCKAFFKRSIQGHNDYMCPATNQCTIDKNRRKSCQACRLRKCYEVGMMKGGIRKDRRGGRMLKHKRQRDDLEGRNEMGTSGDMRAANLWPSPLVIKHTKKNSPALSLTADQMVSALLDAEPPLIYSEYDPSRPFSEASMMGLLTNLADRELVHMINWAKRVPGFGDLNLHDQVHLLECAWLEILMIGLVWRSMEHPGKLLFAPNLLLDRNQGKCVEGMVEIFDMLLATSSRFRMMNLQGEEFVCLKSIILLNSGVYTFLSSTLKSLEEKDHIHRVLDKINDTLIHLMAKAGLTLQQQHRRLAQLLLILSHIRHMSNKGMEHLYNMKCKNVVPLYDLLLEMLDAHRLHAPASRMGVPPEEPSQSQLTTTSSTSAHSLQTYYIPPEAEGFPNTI
Briefly: Competitive binding to the estrogen receptor in rat uterine cytosol. As to conditions: for Estrogen Receptor (RBA): relative binding affinity, E2 = 100, rat uterine cytosol, 1 nM [3H]E2, ± SD; for RBA: relative to E2.

Data set [4] concerns vagina of ovariectomized mice. Briefly: In vivo estrogen bioassay: vaginal reductases (local). Also on record: species or system mouse. The protocol: In Vivo Estrogen Bioassays: Vaginal reductases. […] The formazan product in the organic extract is quantified at 500 nm. Except where noted, each compound was assayed on at least 2 separate occasions with at least 5–6 replicates each time.

The next data set relates to uterus of immature rats. The experiment in a line: In vivo estrogen bioassay: uterine weight (uterotrophic assay, systemic). Also on record: species or system rat. Here is the method: In Vivo Estrogen Bioassays: Uterine Weight. […] Control animals received sesame oil. On the fourth day, the animals were killed, the uteri were removed, dissected, blotted and weighed. Except where noted, each compound was assayed in 2 separate experiments with n=5.

Data set [5] deals with T2, ligand binding domain (LBD) of human ERβ (M214-Q530) (Homo sapiens, UniProt Q92731).
T2 construct: human ERβ (M214-Q530); made in house; host or cells: Escherichia coli (lysate used)
T2 sequence (Q92731 214-530): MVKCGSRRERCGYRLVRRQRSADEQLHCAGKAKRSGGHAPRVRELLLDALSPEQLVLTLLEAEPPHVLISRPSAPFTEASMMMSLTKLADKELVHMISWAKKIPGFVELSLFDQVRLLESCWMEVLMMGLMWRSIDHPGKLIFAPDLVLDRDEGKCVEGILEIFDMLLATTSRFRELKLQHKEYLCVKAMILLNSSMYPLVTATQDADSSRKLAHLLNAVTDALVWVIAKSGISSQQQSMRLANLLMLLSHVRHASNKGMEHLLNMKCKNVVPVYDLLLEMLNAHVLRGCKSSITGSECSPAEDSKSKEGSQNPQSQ
Briefly: Competitive binding to the LBD of human ERβ in E. coli lysates. The conditions noted are these: RBA compared to E2 (=100), [3H]E2, ± SD.

The target of data set [6] is T3, ligand binding domain (LBD) of human ERα (M250-V595) (Homo sapiens, UniProt P03372).
T3 construct: human ERα (M250-V595); made in house; host or cells: Escherichia coli (lysate used)
T3 sequence (P03372 250-595): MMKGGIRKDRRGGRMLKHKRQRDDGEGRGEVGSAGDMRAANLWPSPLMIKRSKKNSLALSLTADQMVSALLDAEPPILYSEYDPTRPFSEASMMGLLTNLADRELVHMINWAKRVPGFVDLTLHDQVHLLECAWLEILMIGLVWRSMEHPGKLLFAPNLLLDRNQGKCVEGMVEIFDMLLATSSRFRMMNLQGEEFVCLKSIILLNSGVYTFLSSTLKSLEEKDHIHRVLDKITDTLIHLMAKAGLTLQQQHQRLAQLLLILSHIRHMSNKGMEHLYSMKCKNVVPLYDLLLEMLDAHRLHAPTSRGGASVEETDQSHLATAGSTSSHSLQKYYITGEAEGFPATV
Briefly: Competitive binding to the LBD of human ERα in E. coli lysates.

Several values for one entry are separate records, joined by “and”; a condition that tells them apart may be missing. Identical values can stand only once. Entries after “also recorded” stand apart in the source; their conditions may differ. Like-named read-outs stand apart in the source and are kept apart here. Marks after values point to notes of the source that are not given here.

On to `CC(C)OC(=O)[C@H]1C[C@H](O)[C@@]2(C)CC[C@@H]3c4ccc(O)cc4CC[C@H]3[C@H]12` [E15-1,3i, Isopropyl(3,17β-dihydroxyestra-1,3,5(10)-trien-15α-yl)formate], for which the “Ishikawa cell AlkP (RSA)” value in data set [1] was determined as 0.3 ± 0.06. Also, the “Esterase (RHA)” value in data set [2] is given as 0.4 ± 0.1. For the same molecule, the “RHA” value in data set [2] (rat, 50 μM) worked out at 0.3%. Besides, in data set [3], the “Estrogen Receptor (RBA)” value stood at 5 ± 4.
Take `COC(=O)C[C@H]1C[C@H](O)[C@@]2(C)CC[C@@H]3c4ccc(O)cc4CC[C@H]3[C@H]12` [E15-2,1, Methyl(3,17β-dihydroxyestra-1,3,5(10)-trien-15α-yl)acetate]: the “Ishikawa cell AlkP (RSA)” value in data set [1] worked out at 1 ± 1. In addition, the “Esterase (RHA)” value in data set [2] turned out to be 31 ± 6. In data set [3], the “Estrogen Receptor (RBA)” value is listed as 5 ± 3 and the “RBA” value is recorded as 5%.
Taken in the same sequence, the figures for `CCOC(=O)C[C@H]1C[C@H](O)[C@@]2(C)CC[C@@H]3c4ccc(O)cc4CC[C@H]3[C@H]12` [E15-2,2, Ethyl(3,17β-dihydroxyestra-1,3,5(10)-trien-15α-yl)acetate] were 0.4 ± 0.5, 71 ± 7, 2 ± 0 and 2%.
As for `CCOC(=O)CC[C@H]1C[C@H](O)[C@@]2(C)CC[C@@H]3c4ccc(O)cc4CC[C@H]3[C@H]12` [E15-3,2, Ethyl 3-(3,17β-dihydroxyestra-1,3,5(10)-trien-15α-yl)propionate], the “Ishikawa cell AlkP (RSA)” value in data set [1] was found to be 0. Also, in data set [2], the “Esterase (RHA)” value is on record as 674 ± 14. In addition, in data set [3], the “Estrogen Receptor (RBA)” value was less than 0.1.
Consider `C[C@]12CC[C@@H]3c4ccc(O)cc4CC[C@H]3[C@@H]1CCC2=O` [Compound E1, estrone, reference compound], for which the “Ishikawa cell AlkP (RSA)” value in data set [1] turned out to be 4 ± 2.
Regarding `C[C@]12CC[C@@H]3c4ccc(O)cc4CC[C@H]3[C@@H]1[C@@H](CCC(=O)O)C[C@@H]2O` [E15-3,0, 3-(3,17β-Dihydroxyestra-1,3,5(10)-trien-15α-yl)propionic acid], the “Ishikawa cell AlkP (RSA)” value in data set [1] amounted to 0. The “Estrogen Receptor (RBA)” value in data set [3] is given as 0.
As to `CCCOC(=O)[C@H]1C[C@H](O)[C@@]2(C)CC[C@@H]3c4ccc(O)cc4CC[C@H]3[C@H]12` [E15-1,3, Propyl(3,17β-dihydroxyestra-1,3,5(10)-trien-15α-yl)formate], the “Ishikawa cell AlkP (RSA)” value in data set [1] came out at 2 ± 1. For the same molecule, the “Estrogen Receptor (RBA)” value in data set [3] turned out to be 17 ± 5.
For the molecule `C[C@]12CC[C@@H]3c4ccc(O)cc4CC[C@H]3[C@@H]1C[C@@H](C(=O)OCCF)[C@@H]2O` [E16-1,2F1, reference compound], in data set [4] (50 ng instilled into the vagina, ovariectomized mice, compared to 50 pg E2, brackets = range), the “Vaginal effect 50 ng dose (pg E2 equivalent)” value was 21^b pg E2 equivalent. Besides, the “Vaginal R.A × 10^3” value in data set [4] (activity relative to E2, × 10^3, 50 ng dose) is reported as 0.42. In addition, the “uterotrophic response (in words)” value in the data set on uterus of immature rats (100 μg dose) is “small but statistically significant response”. For the same molecule, the “Uterotrophic effect 100 μg dose (ng E2 equivalent)” value in the data set on uterus of immature rats (100 μg total dose s.c. over 3 days, immature rats, compared to 5 ng E2, brackets = range, n.s. = not significantly different from the control) is 2 ng E2 equivalent and 2^b ng E2 equivalent. Besides, the “Uterotrophic R.A × 10^3” value in the data set with uterus of immature rats (activity relative to E2, × 10^3, 100 μg dose, n.s. = not significantly different from the control) was 0.02.
Take `COC(=O)CC[C@H]1C[C@H](O)[C@@]2(C)CC[C@@H]3c4ccc(O)cc4CC[C@H]3[C@H]12` [E15-3,1, Methyl 3-(3,17β-dihydroxyestra-1,3,5(10)-trien-15α-yl)propionate]: the “Ishikawa cell AlkP (RSA)” value in data set [1] was found to be 0. Further, the “Esterase (RHA)” value in data set [2] is 248 ± 26. The “Estrogen Receptor (RBA)” value in data set [3] was 0.8 ± 0.1.
Regarding `CCOC(=O)[C@@H]1C[C@H]2[C@@H]3CCc4cc(O)ccc4[C@H]3CC[C@]2(C)[C@H]1O` [E16-1,2, reference compound], the “ERβ RBA” value in data set [5] is reported as 0.3 ± 0.1. The “enzymatic velocity for the hydrolysis” value in data set [2] (rat hepatic microsomes, 50 μM ester, 37° C., ± S.D. over the various experiments) is 2.34±0.8 nmol product/min/mg protein. Also, the “selectivity / preference for ERα” value in data set [6] (ERα versus ERβ LBD) is roughly 95 fold. Further, in data set [6] (RBA compared to E2 (=100), LBD of human ERα in E. coli lysates, [3H]E2, ± SD), the “ERα RBA” value is given as 27 ± 6. In data set [6] (ratio RBA of ERα/ERβ, human LBDs, ± SD), the “ERα/ERβ (ratio of RBA)” value was 95 ± 47.
On to `C[C@]12CC[C@@H]3c4ccc(O)cc4CC[C@H]3[C@@H]1[C@@H](CC(=O)O)C[C@@H]2O` [E15-2,0, (3,17β-Dihydroxyestra-1,3,5(10)-trien-15α-yl)acetic acid], for which, in data set [1], the “Ishikawa cell AlkP (RSA)” value was 0.2 ± 0.2. Besides, in data set [3], the “Estrogen Receptor (RBA)” value is listed as less than 0.1.
`CCCCOC(=O)[C@H]1C[C@H](O)[C@@]2(C)CC[C@@H]3c4ccc(O)cc4CC[C@H]3[C@H]12` [E15-1,4, Butyl(3,17β-dihydroxyestra-1,3,5(10)-trien-15α-yl)formate]: in data set [1], the “Ishikawa cell AlkP (RSA)” value amounted to 0.7 ± 0.4. Further, the “Esterase (RHA)” value in data set [2] is recorded as 7 ± 0.5. Also, the “Estrogen Receptor (RBA)” value in data set [3] worked out at 8 ± 2.
As for “2′-Fluoroethyl(3,17β-dihydroxyestra-1,3,5(10)-trien-15α-yl)formate [E15-1,2F1]”, the “Ishikawa cell AlkP (RSA)” value in data set [1] is given as 3 ± 0.2. For the same molecule, the “Esterase (RHA)” value in data set [2] (relative hydrolytic activity in comparison to E16-1,2 (=100), 50 μM ester, 37° C., ± SD) is listed as 4.5 ± 0.1.
Take `C[C@]12CC[C@@H]3c4ccc(O)cc4CC[C@H]3[C@@H]1[C@@H](C(=O)O)C[C@@H]2O` [E15-1,0, 3,17β-Dihydroxyestra-1,3,5(10)-trien-15α-carboxylic acid]: in data set [1], the “estrogenic activity in the Ishikawa cell assay (in words)” value was “nor does it have estrogenic activity; also recorded: very low, not measurable”. For the same molecule, the “binding to the estrogen receptor (in words)” value in data set [3] is recorded as “does not bind to the estrogen receptor; also recorded: very low, not measurable”.
